Tests used:
Format in all cases: functional
[1] = system: Aspergillus niger; experiment: Antifungal activity against Aspergillus niger at […] after 24 hr by agar well diffusion assay
[2] = system: Streptococcus pyogenes; experiment: Antibacterial activity against Streptococcus pyogenes at […] after 24 hr by agar well diffusion assay
[3] = system: Bacillus subtilis; experiment: Antibacterial activity against Bacillus subtilis at […] after 24 hr by agar well diffusion assay
[4] = system: Escherichia coli; experiment: Antibacterial activity against Escherichia coli at […] after 24 hr by agar well diffusion assay

| SMILES | inhibition zone (IZ) [1] [mm] | inhibition zone (IZ) [2] [mm] | inhibition zone (IZ) [3] [mm] | inhibition zone (IZ) [4] [mm] |
| --- | --- | --- | --- | --- |
| Cc1ccc(NC(=S)Sc2nc(Nc3cccc(C)c3)nc(SC(=S)Nc3ccc(C)cc3)n2)cc1 | 20 | 13 | 19 | 13 |
| COc1ccccc1NC(=S)Sc1nc(Nc2cccc(C)c2)nc(SC(=S)Nc2ccccc2OC)n1 | 14 | 11 | 15 | 15 |
| CC(=O)N(C(C)=O)C(=S)Sc1nc(Nc2cccc(C)c2)nc(Nc2cccc(C)c2)n1 | 14 | 11 | 12 | 11 |
| CCN(CC)C(=S)Sc1nc(Nc2cccc(C)c2)nc(SC(=S)N(CC)CC)n1 | 13 | 12 | 12 | 12 |
| CCOc1ccc(NC(=S)Sc2nc(Nc3cccc(C)c3)nc(SC(=S)Nc3ccc(OCC)cc3)n2)cc1 | 12 | 15 | 14 | 16 |
| CCOc1ccc(NC(=S)Sc2nc(Nc3cccc(C)c3)nc(Nc3cccc(C)c3)n2)cc1 | 18 | 13 | 13 | 14 |
| Cc1cccc(Nc2nc(Nc3cccc(C)c3)nc(SC(=S)Nc3ccccc3)n2)c1 | 17 | 15 | 12 | 13 |
| Cc1cccc(Nc2nc(SC(=S)Nc3ccc([N+](=O)[O-])cc3)nc(SC(=S)Nc3ccc([N+](=O)[O-])cc3)n2)c1 | 16 | 17 | 16 | 15 |
| COc1ccc(NC(=S)Sc2nc(Nc3cccc(C)c3)nc(Nc3cccc(C)c3)n2)cc1 | 17 | 15 | 12 | 12 |
| Cc1cccc(Nc2nc(Nc3cccc(C)c3)nc(SC(=S)NN3CCOCC3)n2)c1 | 15 | 13 | 12 | 12 |
| Cc1cccc(Nc2nc(SC(=S)Nc3ccccc3[N+](=O)[O-])nc(SC(=S)Nc3ccccc3[N+](=O)[O-])n2)c1 | 19 | 13 | 14 | 17 |
| COC1=CC(=O)C[C@@H](C)[C@]12Oc1c(Cl)c(OC)cc(OC)c1C2=O [GRISEOFULVIN] | 20 |  |  |  |
| Cc1cccc(NC(=S)Sc2nc(Nc3cccc(C)c3)nc(SC(=S)Nc3cccc(C)c3)n2)c1 | 14 | 12 | 13 | 13 |
| Cc1cccc(Nc2nc(Nc3cccc(C)c3)nc(SC(=S)Nc3ccc([N+](=O)[O-])cc3)n2)c1 | 17 | 15 | 13 | 13 |
| CC1(C)S[C@@H]2[C@H](NC(=O)[C@H](N)c3ccccc3)C(=O)N2[C@H]1C(=O)O [AMPICILLIN] |  | 26 | 22 | 24 |
| Cc1cccc(Nc2nc(SC(=S)Nc3ccccc3C)nc(SC(=S)Nc3ccccc3C)n2)c1 | 13 | 12 | 19 | 12 |
| Cc1cccc(Nc2nc(SC(=S)NN3CCOCC3)nc(SC(=S)NN3CCOCC3)n2)c1 | 13 | 14 | 13 | 12 |
| Cc1cccc(Nc2nc(Nc3cccc(C)c3)nc(SC(=S)Nc3ccccc3[N+](=O)[O-])n2)c1 | 16 | 14 | 15 | 15 |
| Cc1cccc(Nc2nc(Nc3cccc(C)c3)nc(SC(=S)Nc3ccc(Cl)cc3)n2)c1 | 16 | 13 | 12 | 15 |
| COc1ccccc1NC(=S)Sc1nc(Nc2cccc(C)c2)nc(Nc2cccc(C)c2)n1 | 18 | 14 | 14 | 13 |
| Cc1cccc(Nc2nc(SC(=S)Nc3ccccc3)nc(SC(=S)Nc3ccccc3)n2)c1 | 12 | 12 | 15 | 12 |
| Cc1cccc(Nc2nc(SC(=S)Nc3ccc(Cl)cc3)nc(SC(=S)Nc3ccc(Cl)cc3)n2)c1 | 17 | 18 | 18 | 15 |
| COc1ccc(NC(=S)Sc2nc(Nc3cccc(C)c3)nc(SC(=S)Nc3ccc(OC)cc3)n2)cc1 | 15 | 14 | 15 | 15 |
| Cc1cccc(NC(=S)Sc2nc(Nc3cccc(C)c3)nc(Nc3cccc(C)c3)n2)c1 | 20 | 12 | 14 | 15 |
| O=C(N[C@H](CO)[C@H](O)c1ccc([N+](=O)[O-])cc1)C(Cl)Cl [CHLORAMPHENICOL] |  | 22 | 28 | 19 |
| Cc1cccc(Nc2nc(Nc3cccc(C)c3)nc(SC(=S)Nc3ccccc3C)n2)c1 | 23 | 11 | 12 | 12 |
| Cc1ccc(NC(=S)Sc2nc(Nc3cccc(C)c3)nc(Nc3cccc(C)c3)n2)cc1 | 14 | 15 | 15 | 19 |
| CCn1cc(C(=O)O)c(=O)c2cc(F)c(N3CCNCC3)cc21 [NORFLOXACIN] |  | 26 | 19 | 25 |
